Experimental data from publication doi:10.1101/2025.04.16.649181, “Design of peptide-based PAC1 antagonists combining molecular dynamics simulations and a biologically relevant cell-based assay” (bioRxiv, 2025).
Positions of bridges follow the written chain, without caps; N, C: chain ends. Non-standard residues stand in square brackets, D forms with d. Residues, ends and D or L forms follow the SMILES beside them. No end group written: not given here. Cha = N[C@@H](CC1CCCCC1)C(=O)O

Tests used:
[1] = molecular target: T1, PAC1 (endogenous, mainly PAC1null, SH-SY5Y) (Homo sapiens, UniProt P41586); test: CBS assay, antagonism of P38-induced cAMP in SY5Y_CBS cells; assay type: cell-based; details: for IC50: three independent experiments; for P38-induced cAMP elevation blocked to: 0.2 nM P38, SY5Y_CBS, n = 3
T1 construct: Neuroblastoma SH-SY5Y cells endogenously xpressing hPAC1 and engineered to express CBS; endogenous in cells
T1 sequence (P41586 21-468): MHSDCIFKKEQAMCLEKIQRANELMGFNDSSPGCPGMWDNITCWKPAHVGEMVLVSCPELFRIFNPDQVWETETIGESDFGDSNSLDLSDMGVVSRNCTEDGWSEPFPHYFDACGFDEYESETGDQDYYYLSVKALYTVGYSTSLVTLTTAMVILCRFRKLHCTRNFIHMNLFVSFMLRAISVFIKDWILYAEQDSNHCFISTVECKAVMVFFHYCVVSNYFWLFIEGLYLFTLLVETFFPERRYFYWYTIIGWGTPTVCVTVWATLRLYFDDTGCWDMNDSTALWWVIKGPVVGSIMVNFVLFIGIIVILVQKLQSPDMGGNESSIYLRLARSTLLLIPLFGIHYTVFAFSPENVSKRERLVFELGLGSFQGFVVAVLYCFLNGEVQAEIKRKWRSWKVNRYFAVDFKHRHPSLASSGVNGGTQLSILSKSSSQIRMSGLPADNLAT
Source text: (§1) A single clone of the SH-SY5Y cell line stably expressing a cAMP biosensor (SY5Y_CBS) was generated as previously described for HEK293_CBS and NS-1_CBS cells, using the retroviral vector pLHCX containing the cAMP biosensor and a hygromycin resistance gene. A HEK293_CBS_hPAC1 cell clone was generated by transducing HEK293_CBS cells with the lentiviral vector pLX304 (GeneCopoeia, Rockville, MD) encoding the human PAC1hop (PAC1; GenBank accession no. BC143679) and a blasticidin resistance gene . Following transduction, cells were selected with the appropriate antibiotics (hygromycin or blasticidin) for 2 weeks. Single-cell clones were subsequently isolated by limiting dilution and assessed for PACAP-induced cAMP production using concentration-response assays.
(§2) The cyclic AMP biosensor (CBS) assay was performed using Gibco CO2-independent medium (ThermoFisher, catalog #18045-088). HEK293_CBS_hPAC1 or SY5Y_CBS cells were seeded in 96-well black/clear-bottom plates (MidSci, Fenton, MO) at a density of 6,000 cells per well and incubated overnight. The following day, the medium in each well was aspirated and replaced with fresh medium containing 1.5 mg/mL D-luciferin potassium salt substrate (Gold Biotechnology, St. Louis, MO) and 500 μM isobutyl-1-methylxanthine (IBMX), followed by incubation at 37 °C for 1 hour. Cells were then pre-treated with antagonists for 10 minutes before the addition of agonists (PACAP or forskolin). Plates were incubated at 37 °C for 1 hour, then brought to room temperature and equilibrated for 30 minutes. Luminescence was measured using a GloMax plate reader (Promega, Madison, WI).
(§3) GraphPad Prism ver. 9.0 or 10.0 (GraphPad Software Inc, Boston, MA) was used for data analysis. Concentration response curves were created using a four parameter logistic regression model. EC80 and IC50 parameters were obtained using non-linear regression curve fitting tools. EC80 was calculated as the effective concentration of the agonist required to produce 80% of the maximal response. IC50 was calculated as the concentration of the antagonist that produced 50% of the response induced by an agonist (either PACAP or forskolin) in the absence of the antagonist. Seven or eight different concentrations and three technical replicates per concentration were used for curve fitting. All data are presented as mean ± standard error of the mean (SEM).

[2] = molecular target: T1, PAC1 (endogenous, mainly PAC1null, SH-SY5Y); test: CBS assay, antagonism of P27-induced cAMP in SY5Y_CBS cells; assay type: cell-based; details: for antagonist potency vs P6-27: 0.2 nM P27 (EC80); for IC50: IC50 against P27, 0.2 nM P27 (EC80), n = 3, Figure 7C
Source text: as §1, §2
For the high-throughput CBS screening assays, cells were plated at 2,000 (HEK293_CBS_hPAC1) or 3,000 (SY5Y_CBS) cells per well in […] of Gibco CO2-independent medium, in white 1,536-well tissue culture treated plates. After overnight incubation at 37 °C and 5% CO2, […] of luciferin/IBMX solution was added to the wells (final concentrations of 500 μM each) and plates were incubated at 37 °C for 1 hour. SMOLs (22.5 nL) were transferred to the assay plate, using a pintool device (HEK293 screen) or an ECHO acoustic liquid handler (Beckman Coulter, Brea, CA, SY5Y screen), to final concentrations (4 concentrations per compound) between 0.5 and 30 μM and cells were incubated at 37 °C for 1 hour (HEK293 screen) or 10 minutes (SY5Y screen). […] For forskolin counterscreening in SY5Y cells, forskolin instead of peptide was dispensed to the plate at a final concentration of 5 μM.
as §3

[3] = IC50 against P38 (Figure 9C), 0.2 nM P38, CBS assay, mean ± SEM
[4] = 0.2 nM P38 (EC80), SY5Y_CBS, mean ± SEM, Figure 11B, read-out: IC50 of P6-38 C-terminal mutants in CBS assay

`CSCC[C@H](NC(=O)[C@H](CCC(N)=O)NC(=O)[C@H](CCCCN)NC(=O)[C@H](CCCNC(=N)N)NC(=O)[C@H](Cc1ccc(O)cc1)NC(=O)[C@H](CCCNC(=N)N)NC(=O)[C@H](CO)NC(=O)[C@H](Cc1ccc(O)cc1)NC(=O)[C@H](CO)NC(=O)[C@H](CC(=O)O)NC(=O)[C@@H](NC(=O)[C@@H](N)Cc1ccccc1)[C@@H](C)O)C(=O)N[C@@H](C)C(=O)N[C@H](C(=O)N[C@@H](CCCCN)C(=O)N[C@@H](CCCCN)C(=O)N[C@@H](Cc1ccc(O)cc1)C(=O)N[C@@H](CC(C)C)C(=O)N[C@@H](C)C(=O)N[C@H]1CCC(=O)NCCCC[C@@H](C(=O)N[C@@H](CCCNC(=N)N)C(=O)N[C@@H](Cc2ccc(O)cc2)C(=O)N[C@@H](CCCCN)C(=O)N[C@@H](CCC(N)=O)C(=O)N[C@@H](CCCNC(=N)N)C(=O)N[C@H](C(=O)N[C@@H](CCCCN)C(=O)N[C@@H](CC(N)=O)C(=O)N[C@@H](CCCCN)C(N)=O)C(C)C)NC(=O)CNC(=O)[C@H](CC(C)C)NC(=O)[C@H](C(C)C)NC1=O)C(C)C` [P6-38Lb, (c[E25,K29])P6-38] (H-FTDSYSRYRKQMAVKKYLAEVLGKRYKQRVKNK-NH2; lactam 20-24) showed an IC50 [1, 3] of 219 ± 28 nM.

In the case of FTDSYSRYRKQMAVKKYLAAVLG-NH2 [P6-28], the IC50 ([1]; 0.2 nM P38 (EC80), SY5Y_CBS, Figure 11B, read-out: IC50 of P6-38 C-terminal mutants in CBS assay) is reported as greater than 1000 nM.

`CSCC[C@H](NC(=O)[C@H](CCC(N)=O)NC(=O)[C@H](CCCCN)NC(=O)[C@H](CCCNC(=N)N)NC(=O)[C@H](Cc1ccc(O)cc1)NC(=O)[C@H](CCCNC(=N)N)NC(=O)[C@H](CO)NC(=O)[C@H](Cc1ccc(O)cc1)NC(=O)[C@H](CO)NC(=O)[C@H](CC(=O)O)NC(=O)[C@@H](NC(=O)[C@@H](N)Cc1ccccc1)[C@@H](C)O)C(=O)N[C@@H](C)C(=O)N[C@H](C(=O)N[C@@H](CCCCN)C(=O)N[C@@H](CCCCN)C(=O)N[C@@H](Cc1ccc(O)cc1)C(=O)N[C@@H](CC1CCCCC1)C(=O)N[C@@H](C)C(=O)N[C@H]1CCC(=O)NCCCC[C@@H](C(=O)N[C@@H](CCCNC(=N)N)C(=O)N[C@@H](Cc2ccc(O)cc2)C(=O)N[C@@H](CCCCN)C(=O)N[C@@H](CCC(N)=O)C(=O)N[C@@H](CCCNC(=N)N)C(=O)N[C@H](C(=O)N[C@@H](CCCCN)C(=O)N[C@@H](CC(N)=O)C(=O)N[C@@H](CCCCN)C(N)=O)C(C)C)NC(=O)CNC(=O)[C@H](CC(C)C)NC(=O)[C@H](C(C)C)NC1=O)C(C)C` [P6-38Lbx1, (c[E25,K29], Cha23)P6-38] (H-FTDSYSRYRKQMAVKKY[Cha]AEVLGKRYKQRVKNK-NH2; lactam 20-24) was tested, and the IC50 [1, 3] was 61 ± 12 nM.

For `CSCC[C@@H]1NC(=O)[C@@H](NC(=O)[C@H](CCCCN)NC(=O)[C@H](CCCNC(=N)N)NC(=O)[C@H](Cc2ccc(O)cc2)NC(=O)[C@H](CCCNC(=N)N)NC(=O)[C@H](CO)NC(=O)[C@H](Cc2ccc(O)cc2)NC(=O)[C@H](CO)NC(=O)[C@H](CC(=O)O)NC(=O)[C@@H](NC(=O)[C@@H](N)Cc2ccccc2)[C@@H](C)O)CCC(=O)NCCCC[C@@H](C(=O)N[C@@H](CCCCN)C(=O)N[C@@H](Cc2ccc(O)cc2)C(=O)N[C@@H](CC(C)C)C(=O)N[C@@H](C)C(=O)N[C@@H](C)C(=O)N[C@H](C(=O)N[C@@H](CC2CCCCC2)C(N)=O)C(C)C)NC(=O)[C@H](C(C)C)NC(=O)[C@H](C)NC1=O` [P6-27Lbx2, (c[E16,K20], Cha27)P6-27] (H-FTDSYSRYRKEMAVKKYLAAV[Cha]-NH2; lactam 11-15; N-terminus assumed), the “antagonist potency vs P6-27” value [2] was “did not increase the inhibitory effect of P6-27” and the IC50 [2] was greater than 1000 nM.

For FTDSYSRYRKQMAVKKYLAAVL-NH2 [P6-27], the “P38-induced cAMP elevation blocked to” value ([1]; P6-27 at 1 μM) was 50% and the “P38-induced cAMP elevation blocked to” value ([1]; until the highest concentration tested (10 μM)) was ~ 50%.

“FTDSYSRYRKQMAVKKYLAAVLGKRYKQRVK-NH2 [P6-36]” gave an IC50 [1, 4] of 90 ± 13 nM.

In the case of FTDSYSRYRKQMAVKKYLAAVLGKRYK-NH2 [P6-32], the IC50 [1, 4] is reported as 72 ± 17 nM.

With `CSCC[C@@H]1NC(=O)[C@@H](NC(=O)[C@H](CCCCN)NC(=O)[C@H](CCCNC(=N)N)NC(=O)[C@H](Cc2ccc(O)cc2)NC(=O)[C@H](CCCNC(=N)N)NC(=O)[C@H](CO)NC(=O)[C@H](Cc2ccc(O)cc2)NC(=O)[C@H](CO)NC(=O)[C@H](CC(=O)O)NC(=O)[C@@H](NC(=O)[C@@H](N)Cc2ccccc2)[C@@H](C)O)CCC(=O)NCCCC[C@@H](C(=O)N[C@@H](CCCCN)C(=O)N[C@@H](Cc2ccc(O)cc2)C(=O)N[C@@H](CC(C)C)C(=O)N[C@@H](C)C(=O)N[C@@H](C)C(=O)N[C@H](C(=O)N[C@@H](CC(C)C)C(N)=O)C(C)C)NC(=O)[C@H](C(C)C)NC(=O)[C@H](C)NC1=O` [P6-27Lb, (c[E16,K20])P6-27] (H-FTDSYSRYRKEMAVKKYLAAVL-NH2; lactam 11-15; N-terminus assumed) the “antagonist potency vs P6-27” value [2] was “did not increase the inhibitory effect of P6-27” and the IC50 [2] was greater than 1000 nM.

With `CSCC[C@@H]1NC(=O)[C@@H](NC(=O)[C@H](CCCCN)NC(=O)[C@H](CCCNC(=N)N)NC(=O)[C@H](Cc2ccc(O)cc2)NC(=O)[C@H](CCCNC(=N)N)NC(=O)[C@H](CO)NC(=O)[C@H](Cc2ccc(O)cc2)NC(=O)[C@H](CO)NC(=O)[C@H](CC(=O)O)NC(=O)[C@@H](NC(=O)[C@@H](N)Cc2ccccc2)[C@@H](C)O)CCC(=O)NCCCC[C@@H](C(=O)N[C@@H](CCCCN)C(=O)N[C@@H](Cc2ccc(O)cc2)C(=O)N[C@@H](CC2CCCCC2)C(=O)N[C@@H](C)C(=O)N[C@@H](C)C(=O)N[C@H](C(=O)N[C@@H](CC(C)C)C(N)=O)C(C)C)NC(=O)[C@H](C(C)C)NC(=O)[C@H](C)NC1=O` [P6-27Lbx1, (c[E16,K20], Cha23)P6-27] (H-FTDSYSRYRKEMAVKKY[Cha]AAVL-NH2; lactam 11-15; N-terminus assumed) the “antagonist potency vs P6-27” value [2] was “did not increase the inhibitory effect of P6-27” and the IC50 [2] was greater than 1000 nM.
